Key:
MDAMB436 = test: BrdU DNA incorporation assay
Description: (§1) One hour before fixation with methanol, 100 μM 5-Bromo-2′-deoxyuridine (BrdU, Sigma-Aldrich) and 4 μM 5-Fluoro-2′-deoxyuridine (FldU, Sigma-Aldrich) were added to the cells. Immuno-detection of DNA incorporated BrdU was performed. 4′,6-Diamidino-2-phenylindole, dilactate (DAPI, Thermo Fisher Scientific) solution (1 μg/ml) was used as nuclear counterstain and round coverslips were mounted in each well of the 96 well plate with ProLong Gold Antifade Mountant (Thermo Fisher Scientific). […] Culture plates were imaged with a Zeiss Axio Observer.Z1 wide-field microscope equipped with a 10/0.3×EC Plan Neofluar objective and an AxioCam HSm camera. For each well, a grid of 3×3 fields (each of them 660 μm×492 μm) was automatically defined using the Mark&Find option of the AxioVision software. […] Exposure times were chosen so as to maximize the signal while avoiding saturation. They were kept constant through all images within one experiment. A software-based autofocus was performed on the DAPI channel, using a general offset of 8-10 μm. A 10 μm offset was added for the A488 channel. Images were analyzed semi-automatically with a custom-made ImageJ macro. […] The total number of nuclei and the area that they represent were recorded to compute the BrdU-positive to total nuclei ratios. […] Images with less than 10 labeled nuclei were counted manually with the Image J cell counter plugin.

MCF7 = test: BrdU DNA incorporation assay
Description: as §1

MDAMB361 = test: BrdU DNA incorporation assay
Description: as §1

ZR751 = test: BrdU DNA incorporation assay
Description: as §1

HCC1937 = test: BrdU DNA incorporation assay
Description: as §1

breast cancer cell lines = test: BrdU incorporation assay, panel of 20 cell lines
Description: as §1

BT20 = test: BrdU DNA incorporation assay
Description: as §1

HCC202 = test: BrdU DNA incorporation assay; details: Homo sapiens, HCC202, 24 h
Description: as §1

HCC1500 = test: BrdU DNA incorporation assay
Description: as §1

BT549 = test: BrdU DNA incorporation assay
Description: as §1

SKBR3 = test: BrdU DNA incorporation assay
Description: as §1

pRb phosphorylations = test: pRb phosphorylation in HCC1806 cells; type: cell-based, Human; details: not shown
Description: Equal amounts of whole cell extract proteins were separated according to molecular mass and immunodetected. CDK4-containing complexes were co-immunoprecipited as described (Paternot et al., 2003, J Biol Chem, 278, 26533-40; Bockstaele et al., 2006, Mol Cell Biol, 26, 5070-85). For 2D gel electrophoresis, cells were lysed in a buffer containing 7 M urea and 2 M thiourea. Frozen tumor slides were solubilised in 30 mM Tris cold buffer pH 8.5 containing 7 M urea, 2 M thiourea and 4% CHAPS with continuous vortexing until defreezing and kept under agitation during 20 min. After centrifugation at 14000 rpm for 10 min at 4° C., proteins were quantified. An equal volume of 2-D-sample buffer (7 M urea, 2 M thiourea, 2% CHAPS, 0.4% 3-10 Pharmalytes and 0.4% DTT) was added to samples normalized at 150 μg proteins. Proteins were separated by isoelectric focusing on immobilized linear pH gradient strips (pH 5 to 8, Biorad) before being separated by SDS-PAGE and immunoblotted as described (Bockstaele et al., 2006, Mol Cell Biol, 26, 5070-85).

BT474 = test: BrdU DNA incorporation assay
Description: as §1

HCC70 = test: BrdU DNA incorporation assay
Description: as §1

MDAMB134VI = test: BrdU DNA incorporation assay
Description: as §1

HCC1806 = test: BrdU DNA incorporation assay
Description: One hour before fixation with methanol, 100 μM 5-Bromo-2′-deoxyuridine (BrdU, Sigma-Aldrich) and 4 μM 5-Fluoro-2′-deoxyuridine (FldU, Sigma-Aldrich) were added to the cells. Immuno-detection of DNA incorporated BrdU was performed. 4′,6-Diamidino-2-phenylindole, dilactate (DAPI, Thermo Fisher Scientific) solution (1 μg/ml) was used as nuclear counterstain and round coverslips were mounted in each well of the 96 well plate with ProLong Gold Antifade Mountant (Thermo Fisher Scientific). […] Culture plates were imaged with a Zeiss Axio Observer.Z1 wide-field microscope equipped with a 10/0.3×EC Plan Neofluar objective and an AxioCam HSm camera. For each well, a grid of 3×3 fields (each of them 660 μm×492 μm) was automatically defined using the Mark&Find option of the AxioVision software. […] Exposure times were chosen so as to maximize the signal while avoiding saturation. They were kept constant through all images within one experiment. A software-based autofocus was performed on the DAPI channel, using a general offset of 8-10 μm. A 10 μm offset was added for the A488 channel. Images were analyzed semi-automatically with a custom-made ImageJ macro. For each field of view, two masks were created, representing the areas positive for the DAPI or for both the DAPI and the BrdU stainings, respectively. Nuclei were then segmented within these masks using the “Analyze particles” function. The total number of nuclei and the area that they represent were recorded to compute the BrdU-positive to total nuclei ratios. The segmentation of the nuclei was verified visually and only values extracted from correctly segmented images were selected for further analysis. […] Each processed image was therefore systematically inspected to correct low counts and remove image with staining artefacts from the analysis. Images with less than 10 labeled nuclei were counted manually with the Image J cell counter plugin.

MDAMB468 = test: BrdU DNA incorporation assay
Description: as §1

MDAMB231 = test: BrdU DNA incorporation assay
Description: as §1

HCC1954 = test: BrdU DNA incorporation assay
Description: as §1

HCC1569 = test: BrdU DNA incorporation assay
Description: as §1

HCC38 = test: BrdU DNA incorporation assay
Description: as §1

T47D = test: BrdU DNA incorporation assay
Description: as §1

CC(=O)c1c(C)c2cnc(Nc3ccc(N4CCNCC4)cn3)nc2n(C2CCCC2)c1=O [PD0332991, palbociclib]
IC50 (MDAMB436; Homo sapiens, MDA-MB-436, 24 h): > 1000 nM | sensitivity of the cell line to PD0332991 (MDAMB436; MDAMB436, basal-like): insensitive | IC50 (MCF7; Homo sapiens, MCF7, 24 h): 15 nM | sensitivity of the cell line to PD0332991 (MCF7; MCF7, luminal): sensitive | IC50 (MDAMB361; Homo sapiens, MDA-MB-361, 24 h): 10 nM | sensitivity of the cell line to PD0332991 (MDAMB361; MDAMB361, HER2+): sensitive | IC50 (ZR751; Homo sapiens, ZR-75-1, 24 h): 15 nM | sensitivity of the cell line to PD0332991 (ZR751; ZR75-1): sensitive | sensitivity of the cell line to PD0332991 (HCC1937; HCC1937, basal-like): insensitive | IC50 (HCC1937; Homo sapiens, HCC1937, 24 h): > 1000 nM | cell lines in which the proportion of DNA replicating cells was reduced in a concentration-dependent way (breast cancer cell lines; BrdU incorporation): 13 out of these 20 cell lines | IC50 (breast cancer cell lines; Homo sapiens, read-out: IC50s with the BrdU incorporation assay): 5 to 50 nM | sensitivity of the cell line to PD0332991 (BT20; BT20, basal-like): sensitive | IC50 (BT20; Homo sapiens, BT-20, 24 h): 3 nM | IC50 (HCC202): 25 nM | sensitivity of the cell line to PD0332991 (HCC1500; HCC1500, basal-like): sensitive | IC50 (HCC1500; Homo sapiens, HCC1500, 24 h): 10 nM | sensitivity of the cell line to PD0332991 (BT549; BT459 as printed, basal-like): insensitive | IC50 (BT549; Homo sapiens, BT-549, 24 h): > 1000 nM | IC50 (SKBR3; Homo sapiens, SK-BR-3, 24 h): 15 nM | sensitivity of the cell line to PD0332991 (SKBR3; SKBR3, HER2+): sensitive | inhibition of pRb phosphorylations in response to PD0332991 (pRb phosphorylations): marked inhibition | sensitivity of the cell line to PD0332991 (BT474; BT474, HER2+): sensitive | IC50 (BT474; Homo sapiens, BT-474, 24 h): 15 nM | sensitivity of the cell line to PD0332991 (HCC70; HCC70, basal-like): insensitive | IC50 (HCC70; Homo sapiens, HCC70, 24 h): > 1000 nM | IC50 (MDAMB134VI; Homo sapiens, MDA-MB-134-VI, 24 h): 3 nM | sensitivity of the cell line to PD0332991 (MDAMB134VI; MDAMB134IV as printed, luminal): sensitive | proportion of cells in S phase measured with the BrDU assay (HCC1806; HCC1806 cells, 1 μM PD0332991 (FIG. 1C), average of 5 independent experiments): 80 % of the control value | IC50 (HCC1806; Homo sapiens, HCC1806, 24 h): 10 nM | IC50 (MDAMB468; Homo sapiens, MDA-MB-468, 24 h): > 1000 nM | sensitivity of the cell line to PD0332991 (MDAMB468; MDAMB468, basal-like): insensitive | IC50 (MDAMB231; Homo sapiens, MDA-MB-231, 24 h): 15 nM | sensitivity of the cell line to PD0332991 (MDAMB231; MDAMB231, basal-like): sensitive | sensitivity of the cell line to PD0332991 (HCC1954; HCC1954, HER2+): sensitive | IC50 (HCC1954; Homo sapiens, HCC1954, 24 h): 25 nM | sensitivity of the cell line to palbociclib (HCC1569; HCC1569): insensitive | IC50 (HCC1569; Homo sapiens, HCC1569, 24 h): > 1000 nM | sensitivity of the cell line to PD0332991 (HCC38; HCC38, basal-like): sensitive | IC50 (HCC38; Homo sapiens, HCC38, 24 h): 15 nM | IC50 (T47D; Homo sapiens, 24 h): 15 nM | sensitivity of the cell line to PD0332991 (T47D; luminal): sensitive

CC[C@H](CO)Nc1nc(NCc2ccccc2)c2ncn(C(C)C)c2n1 [Roscovitine]
effect of Roscovitine on the sensitivity of HCC1806 cells to PD0332991 (HCC1806; 2.5, 5, 10 μM Roscovitine with increasing concentrations of PD0332991, BrdU (FIG. 5)): dose-dependently increased the sensitivity
